Converted amounts (≈) assume the structure as drawn. Where two headings read alike, the source gives them in different places.
Key:
S. aureus = test: In vitro antibacterial activity (MIC), S. aureus; format: cell-based, Staphylococcus Aureus; details: Staphylococcus aureus
Protocol: Strains: strain ATCC25923 is available from the American Type Culture Collection, and is used as a standard strain of Staphylococcus Aureus;
Liquid medium: MH bouillon culture medium, a product of BD Company, United States of American;
Tested Compounds: compounds 12a, 13 and 14 prepared according to the methods above, and Linezolid purchased from Pfizer.
(§1) The test strain was inoculated into the liquid medium and cultured at 37° C. for 16-18 h. The culture liquid and MH medium were put into two blank wells of a 96-well plate, respectively. Then, the absorptions thereof were measured by a Microplate reader. The difference between the absorption values of the culture liquid and MH medium is the adsorption of the bacteria. The concentration of the culture liquid can be calculated according to the formula of 1OD=50 million CFU/mL. The culture liquid was diluted with the MH bouillon culture medium to 5000 CFU/mL for further use.
(§2) Compounds 12a, 13 and 14 were dissolved in DMSO to 1 mg/mL, and then filtered with a 0.22 μm filter to obtain the compound solutions. And then they were gradually diluted to a desired concentration (10× final concentration) with the liquid medium, so as to obtain a series of dilutions. The final concentration grade of the dilutions of each tested compound consists of 14 concentrations, which includes: 0.03125 μg/mL, […], 0.125 μg/mL, 0.25 μg/mL, […], 1 μg/mL, 2 μg/mL, 4 μg/mL, 8 μg/mL, 16 μg/mL, 32 μg/mL, 64 μg/mL, 128 μg/mL and 256 μg/mL.
(§3) 10 μL of each of the compound dilutions above was added into a well of a 96-well plate. 90 μL of the culture liquid (5000 CFU/mL) was added into each of the wells, respectively, mixed with the dilutions to render the tested compound concentration to the final concentration. The resulted mixture was incubated at 37° C. for 16-18 h, and then the OD630 thereof was measured. A culture liquid free of the tested compounds is used as a blank control, and three parallel tests with the same concentration of each compound were performed. The minimum inhibitory concentration (MIC) of each compound on the standard strain of Staphylococcus Aureus and other test strains was determined. Specifically, among the culture liquid contained in the wells of the micro-plate, the first three lowest concentrations under which growth of the test strains could be observed were chose for further evaluation of the MIC. A culture liquid free of tested compounds was used as a blank control. Each of the culture liquids was homogenized independently, and then was diluted with a sterile saline. Each of the diluted culture liquids was plated onto a MH bouillon plate and incubated at 37° C. for 20 h in incubator. After the incubation, the number of the colonies on each plate was counted. As compared with the blank control group, the lowest concentration of each of the test compound groups, at which 80% reduction in the colony number of the strains was achieved, was recorded as the MIC.

S. pneumoniae = test: In vitro antibacterial activity (MIC), S. pneumoniae; format: cell-based; details: Streptococcus pneumoniae
Protocol: as §1, §2, §3

S. agalactiae = test: In vitro antibacterial activity (MIC), S. agalactiae; format: cell-based; details: Streptococcus agalactiae
Protocol: as §1, §2, §3

E. faecalis = test: In vitro antibacterial activity (MIC), E. faecalis; format: cell-based; details: Enterococcus faecalis
Protocol: as §1, §2, §3

HEK-293 = test: Cytotoxicity experiment (MTT), HEK-293; format: cell-based; details: Homo sapiens, HEK293, 48 h, HEK-293 normal cells, read-out: Inhibition ratio
Protocol: (§4) (1) Inoculating cells: Experimental cells in the growth of logarithmic phase were collected and suspended. The cell concentration of the suspension was adjusted so that they could be inoculated into the wells of 96-well micro plate at a density between 10^3-10^4 cells per well (200 μl per well). (2) Culturing cells: The cells were cultured at normal conditions for 3 days and then exposed to 50 uM compounds for test. (3) Coloring reaction: At 24 h, 48 h and 72 h after the cells being exposed to the compounds for test, 200 μl culture medium containing 20 μl MTT solution (5 mg/ml) was added into each well, and the well was further incubated at 37° C. for 2 hours to terminate the incubation. After the incubation, the supernatants were removed from the wells. In the event there were suspended cells in the wells, centrifugation should be performed before removal of supernatant from the wells. After the removal, 150 μl DMSO was added to each well and mixed thoroughly by agitation for 10 mins to fully dissolve crystals. (4) Ascertainment of colorimetry: The absorbance value at 490 nm of each well was determined by Enzyme-linked immunosorbent Monitor. The growth curve of the experimental cells was plotted by taking time as x-coordinate and absorbance value as y-coordinate. In addition, an inhibition ratio could be calculated in accordance with the following formula: Inhibition ratio=(absorbance value of control group-absorbance value of administering group)/absorbance value of control group×100%.

L-02 = test: Cytotoxicity experiment (MTT), L-02; format: cell-based; details: Homo sapiens, L02, 48 h, L-02 normal cells, read-out: Inhibition ratio
Protocol: as §4

[1] = S. aureus (12 strains), read-out: MIC
[2] = S. pneumoniae (10 strains), read-out: MIC
[3] = S. agalactiae (5 strains), read-out: MIC
[4] = E. faecalis (7 strains), read-out: MIC

Structure (SMILES)	MIC (S. aureus; [1]) [µg/mL]	MIC (S. pneumoniae; [2]) [µg/mL]	MIC (S. agalactiae; [3]) [µg/mL]	MIC (E. faecalis; [4]) [µg/mL]	melting point [°C]	cytotoxicity at 50 µM (HEK-293) [%]	cytotoxicity at 50 µM (L-02) [%]	MIC (S. aureus) [µg/mL]	MIC (S. pneumoniae) [µg/mL]	MIC (S. agalactiae) [µg/mL]	MIC (E. faecalis) [µg/mL]
CC(=O)NC[C@H]1CN(c2ccc(-n3cc(-c4ccncc4)cn3)c(F)c2)C(=O)O1 [Compound 13a, (S)-N-((3-(3-fluoro-4-(4-(pyridin-4-yl)-1H-pyrazol-1-yl)phenyl)-2-oxooxazolidin-5-yl)methyl)acetamide]	0.5 to 16 (≈ 1.26 to 40.5 µM)	0.125 to 16 (≈ 0.316 to 40.5 µM)	0.25 to 16 (≈ 0.632 to 40.5 µM)	0.25 to 16 (≈ 0.632 to 40.5 µM)		11	4				
COc1ccc(-c2ccnn2-c2ccc(N3C[C@H](CNC(C)=O)OC3=O)cc2F)cc1OC [Compound 14j, (S)-N-((3-(3-fluoro-4-(5-(3,4-dimethoxyphenyl)-1H-pyrazol-1-yl)phenyl)-2-oxooxazolidin-5-yl)methyl) acetamide]					153.7 to 156.1	7	12	0.25 to 2 (≈ 0.55 to 4.4 µM)	0.25 to 1 (≈ 0.55 to 2.2 µM)	0.25 to 2 (≈ 0.55 to 4.4 µM)	0.5 to 2 (≈ 1.1 to 4.4 µM)
CC(=O)NC[C@H]1CN(c2ccc(-n3cc(-c4ccc(Cl)cc4)cn3)c(F)c2)C(=O)O1 [Compound 13d, (S)-N-((3-(3-fluoro-4-(4-(4-chlorophenyl)-1H-pyrazol-1-yl)phenyl)-2-oxooxazolidin-5-yl)methyl)acetamide]					237.5 to 238.2	21	39.3	1 to 4 (≈ 2.33 to 9.33 µM)	0.25 to 4 (≈ 0.583 to 9.33 µM)	0.5 to 8 (≈ 1.17 to 18.7 µM)	0.5 to 8 (≈ 1.17 to 18.7 µM)
CC(=O)NC[C@H]1CN(c2ccc(-n3cc(-c4ccc(C(=O)O)cn4)cn3)c(F)c2)C(=O)O1 [Compound 13e, (S)-N-((3-(3-fluoro-4-(4-(5-carboxyl-pyridin-2-yl)-1H-pyrazol-1-yl)phenyl)-2-oxooxazolidin-5-yl)methyl) acetamide]	1 to 8 (≈ 2.28 to 18.2 µM)	0.5 to 8 (≈ 1.14 to 18.2 µM)	0.5 to 4 (≈ 1.14 to 9.1 µM)	1 to 8 (≈ 2.28 to 18.2 µM)	279.6 to 280.2	36.3	38				
COc1ccc(-c2cnn(-c3ccc(N4C[C@H](CNC(C)=O)OC4=O)cc3F)c2)cc1 [Compound 13c, (S)-N-((3-(3-fluoro-4-(4-(4-methoxyphenyl)-1H-pyrazol-1-yl)phenyl)-2-oxooxazolidin-5-yl)methyl) acetamide]	1 to 8 (≈ 2.36 to 18.8 µM)	0.5 to 8 (≈ 1.18 to 18.8 µM)	0.5 to 8 (≈ 1.18 to 18.8 µM)	0.25 to 8 (≈ 0.589 to 18.8 µM)	226.1 to 227.8	32	10.4				
CC(=O)NC[C@H]1CN(c2ccc(-n3ccc(-c4ccccn4)n3)c(F)c2)C(=O)O1 [Compound 12a, (S)-N-((3-(3-fluoro-4-(3-(pyridin-2-yl)-1H-pyrazol-1-yl)phenyl)-2-oxooxazolidin-5-yl)methyl)acetamide]	2 to 16 (≈ 5.06 to 40.5 µM)	1 to 16 (≈ 2.53 to 40.5 µM)	2 to 16 (≈ 5.06 to 40.5 µM)	2 to 16 (≈ 5.06 to 40.5 µM)		5.5	20				

Further lines, with some results ahead:

MIC (S. aureus; [1]) [µg/mL]	MIC (S. pneumoniae; [2]) [µg/mL]	MIC (S. agalactiae; [3]) [µg/mL]	MIC (E. faecalis; [4]) [µg/mL]	melting point [°C]	Structure (SMILES)	cytotoxicity at 50 µM (HEK-293) [%]	cytotoxicity at 50 µM (L-02) [%]	MIC (S. aureus) [µg/mL]	MIC (S. pneumoniae) [µg/mL]	MIC (S. agalactiae) [µg/mL]	MIC (E. faecalis) [µg/mL]
2 to 16 (≈ 5.06 to 40.5 µM)	1 to 16 (≈ 2.53 to 40.5 µM)	2 to 16 (≈ 5.06 to 40.5 µM)	2 to 16 (≈ 5.06 to 40.5 µM)		CC(=O)NC[C@H]1CN(c2ccc(-n3nccc3-c3cccnc3)c(F)c2)C(=O)O1 [Compound 14a, (S)-N-((3-(3-fluoro-4-(5-(pyridin-3-yl)-1H-pyrazol-1-yl)phenyl)-2-oxooxazolidin-5-yl)methyl)acetamide]	14	7.51				
4 to 32 (≈ 9.79 to 78.3 µM)	2 to 16 (≈ 4.9 to 39.2 µM)	2 to 32 (≈ 4.9 to 78.3 µM)	2 to 32 (≈ 4.9 to 78.3 µM)	89.5 to 91.9	CC(=O)NC[C@H]1CN(c2ccc(-n3nccc3-c3ccc(C)cc3)c(F)c2)C(=O)O1 [Compound 14c, (S)-N-((3-(3-fluoro-4-(5-(p-tolyl)-1H-pyrazol-1-yl)phenyl)-2-oxooxazolidin-5-yl)methyl)acetamide]	40	39				
4 to 32 (≈ 8.43 to 67.5 µM)	2 to 32 (≈ 4.22 to 67.5 µM)	4 to 32 (≈ 8.43 to 67.5 µM)	4 to 32 (≈ 8.43 to 67.5 µM)	90.5 to 92.3	CC(=O)NC[C@H]1CN(c2ccc(-n3nccc3-c3cccc(Br)n3)c(F)c2)C(=O)O1 [Compound 14b, (S)-N-((3-(3-fluoro-4-(5-(6-bromopyridin-2-yl)-1H-pyrazol-1-yl)phenyl)-2-oxooxazolidin-5-yl)methyl) acetamide]	19.5	21				
1 to 8 (≈ 2.27 to 18.2 µM)	0.5 to 8 (≈ 1.14 to 18.2 µM)	0.25 to 8 (≈ 0.568 to 18.2 µM)	0.5 to 8 (≈ 1.14 to 18.2 µM)	175.4 to 177.6	CSc1ccc(-c2ccnn2-c2ccc(N3C[C@H](CNC(C)=O)OC3=O)cc2F)cc1 [Compound 14f, (S)-N-((3-(3-fluoro-4-(5-(4-(methylthio)phenyl)-1H-pyrazol-1-yl)phenyl)-2-oxooxazolidin-5-yl)methyl) acetamide]	40	29				
0.5 to 16 (≈ 1.26 to 40.5 µM)	0.125 to 16 (≈ 0.316 to 40.5 µM)	0.25 to 16 (≈ 0.632 to 40.5 µM)	0.25 to 16 (≈ 0.632 to 40.5 µM)	79.9 to 82.1	CC(=O)NC[C@H]1CN(c2ccc(-n3nccc3-c3ccccn3)c(F)c2)C(=O)O1 [Compound 14e, (S)-N-((3-(3-fluoro-4-(5-(pyridin-2-yl)-1H-pyrazol-1-yl)phenyl)-2-oxooxazolidin-5-yl)methyl)acetamide]	47	39				
1 to 4 (≈ 2.53 to 10.1 µM)	0.25 to 4 (≈ 0.632 to 10.1 µM)	0.5 to 8 (≈ 1.26 to 20.2 µM)	0.5 to 8 (≈ 1.26 to 20.2 µM)	74.5 to 76.3	CC(=O)NC[C@H]1CN(c2ccc(-n3nccc3-c3ccncc3)c(F)c2)C(=O)O1 [Compound 14h, (S)-N-((3-(3-fluoro-4-(5-(pyridin-4-yl)-1H-pyrazol-1-yl)phenyl)-2-oxooxazolidin-5-yl)methyl)acetamide]	5	14				
1 to 8 (≈ 2.11 to 16.9 µM)	0.5 to 8 (≈ 1.05 to 16.9 µM)	0.5 to 8 (≈ 1.05 to 16.9 µM)	0.25 to 8 (≈ 0.527 to 16.9 µM)	92.7 to 95.4	CC(=O)NC[C@H]1CN(c2ccc(-n3nccc3-c3ccc(Br)cn3)c(F)c2)C(=O)O1 [Compound 14g, (S)-N-((3-(3-fluoro-4-(5-(5-bromopyridin-2-yl)-1H-pyrazol-1-yl)phenyl)-2-oxooxazolidin-5-yl)methyl) acetamide]	10	5.9				
1 to 8 (≈ 2.42 to 19.4 µM)	0.5 to 8 (≈ 1.21 to 19.4 µM)	0.5 to 4 (≈ 1.21 to 9.7 µM)	1 to 8 (≈ 2.42 to 19.4 µM)	111.4 to 112.9	CC(=O)NC[C@H]1CN(c2ccc(-n3nccc3-c3ccc(F)cc3)c(F)c2)C(=O)O1 [Compound 14i, (S)-N-((3-(3-fluoro-4-(5-(4-fluorophenyl)-1H-pyrazol-1-yl)phenyl)-2-oxooxazolidin-5-yl)methyl)acetamide]	5.5	9				
